According to ChEMBL document CHEMBL1134028, “1,2,5-Thiadiazole derivatives are potent and selective ligands at human 5-HT1A receptors” (Bioorg Med Chem Lett, 2001):

Legend:
[1] = target: T1, 5-hydroxytryptamine receptor 1A (Homo sapiens, UniProt P08908); experiment: Ability to displace [3H]8-OH-DPAT from CHO cells stably transfected with human 5-hydroxytryptamine 1A receptor; format: cell-based
T1 sequence (P08908 whole entry): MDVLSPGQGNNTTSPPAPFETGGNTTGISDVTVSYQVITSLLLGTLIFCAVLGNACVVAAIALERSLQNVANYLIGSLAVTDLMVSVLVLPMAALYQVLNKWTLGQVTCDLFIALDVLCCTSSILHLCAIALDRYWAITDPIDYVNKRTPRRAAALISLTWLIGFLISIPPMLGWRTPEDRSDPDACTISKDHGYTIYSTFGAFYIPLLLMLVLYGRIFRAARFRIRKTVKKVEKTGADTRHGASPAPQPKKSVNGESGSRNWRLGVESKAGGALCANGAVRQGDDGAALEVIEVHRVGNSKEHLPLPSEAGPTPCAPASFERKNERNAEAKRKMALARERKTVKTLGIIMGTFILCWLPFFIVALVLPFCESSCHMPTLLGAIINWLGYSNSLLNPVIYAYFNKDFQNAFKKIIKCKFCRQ

[2] = target: Adrenergic receptor alpha-1 (Rattus norvegicus) (UniProt P15823+P23944+P43140); experiment: Compound was tested for percent inhibition at Alpha-1 adrenergic receptor in rat at 100 nM concentration
CHO [3] = experiment: Inhibitory activity determined by the compound ability to reverse the forskolin-stimulated turnover of cAMP in CHO cells; format: functional, cell-based; details: Cricetulus griseus
CHO [4] = experiment: Intrinsic activity determined by the compound ability to reverse the forskolin-stimulated turnover of cAMP in CHO cells; format: functional; details: Cricetulus griseus
[5] = target: T2, 5-hydroxytryptamine receptor 1A (Homo sapiens) (UniProt P08908); experiment: Ability to displace [3H]-8-OH-DPAT from CHO cells stably transfected with human 5-hydroxytryptamine 1A receptor at a concentration of 1 uM; format: cell-based
T2 sequence (whole entry): T1 sequence (P08908 whole entry)

CHO [6] = experiment: Effective concentration for intrinsic activity determined by the compound ability to reverse the forskolin-stimulated turnover of cAMP in CHO cells; details: Cricetulus griseus
D(4) dopamine receptor = target: T3, D(4) dopamine receptor (Homo sapiens, UniProt P21917); experiment: Percent inhibition towards dopamine D4 receptor
T3 sequence (P21917 whole entry): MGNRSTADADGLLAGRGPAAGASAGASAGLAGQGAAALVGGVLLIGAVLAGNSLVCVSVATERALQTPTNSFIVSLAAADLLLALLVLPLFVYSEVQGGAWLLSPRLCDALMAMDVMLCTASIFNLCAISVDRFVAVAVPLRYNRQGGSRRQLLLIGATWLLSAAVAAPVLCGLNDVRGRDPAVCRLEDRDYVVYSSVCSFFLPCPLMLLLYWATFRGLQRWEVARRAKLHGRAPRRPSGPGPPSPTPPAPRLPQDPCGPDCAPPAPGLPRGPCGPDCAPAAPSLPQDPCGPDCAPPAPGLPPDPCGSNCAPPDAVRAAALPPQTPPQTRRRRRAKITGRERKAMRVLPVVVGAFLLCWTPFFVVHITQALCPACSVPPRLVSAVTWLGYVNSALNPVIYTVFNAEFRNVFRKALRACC

D(2) dopamine receptor = D(2) dopamine receptor (Rattus norvegicus, UniProt P61169); experiment: Percent inhibition towards dopamine D2 receptor
D(3) dopamine receptor = D(3) dopamine receptor (Homo sapiens, UniProt P35462); experiment: Percent inhibition towards dopamine D3 receptor
[7] = target: D(2) dopamine receptor (Rattus norvegicus) (UniProt P61169); experiment: Percent inhibition towards dopamine D2 receptor at 100 nM concentration
Chain of D(2) dopamine receptor (Rattus norvegicus) (P61169 whole entry): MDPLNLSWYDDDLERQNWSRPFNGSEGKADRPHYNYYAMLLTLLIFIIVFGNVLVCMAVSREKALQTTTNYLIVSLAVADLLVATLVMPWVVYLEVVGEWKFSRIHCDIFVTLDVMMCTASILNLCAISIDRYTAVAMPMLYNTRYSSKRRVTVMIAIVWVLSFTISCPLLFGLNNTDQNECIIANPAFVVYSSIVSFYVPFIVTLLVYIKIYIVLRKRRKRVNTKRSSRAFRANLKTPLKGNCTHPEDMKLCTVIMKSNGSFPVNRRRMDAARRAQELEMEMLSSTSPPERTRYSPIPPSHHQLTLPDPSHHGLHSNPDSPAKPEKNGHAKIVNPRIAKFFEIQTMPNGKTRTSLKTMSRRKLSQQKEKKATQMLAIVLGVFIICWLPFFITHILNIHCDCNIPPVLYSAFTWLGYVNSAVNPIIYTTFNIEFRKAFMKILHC

Chain of D(2) dopamine receptor (P61169 whole entry): as above
Chain of D(3) dopamine receptor (P35462 whole entry): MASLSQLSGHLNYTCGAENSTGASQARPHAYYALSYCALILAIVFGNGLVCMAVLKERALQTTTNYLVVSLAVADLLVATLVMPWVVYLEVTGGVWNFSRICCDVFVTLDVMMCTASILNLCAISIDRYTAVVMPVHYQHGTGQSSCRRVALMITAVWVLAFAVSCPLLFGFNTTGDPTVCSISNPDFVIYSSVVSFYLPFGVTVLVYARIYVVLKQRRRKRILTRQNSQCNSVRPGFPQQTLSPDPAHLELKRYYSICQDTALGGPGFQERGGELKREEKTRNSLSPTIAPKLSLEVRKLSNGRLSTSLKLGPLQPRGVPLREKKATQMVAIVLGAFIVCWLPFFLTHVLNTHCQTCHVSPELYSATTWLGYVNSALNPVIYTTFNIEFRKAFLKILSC

Compound | Ki [1] [nM] | inhibition [2] [%] | IC50 (CHO [3]) [nM] | Emax (CHO [4]) [%] | other results
COc1nsnc1N1CCN(C[C@@H](Cc2ccccc2)N(C)C(=O)c2ccccc2)CC1 | 9.9 | 15 | 6.4 | 0 | –
COc1nsnc1N1CCN(C[C@@H](Cc2ccccc2)N(C)C(=O)N2CCOCC2)CC1 | – | – | – | – | inhibition [5]: 46%
CN(C(=O)C1CCCCC1)[C@H](Cc1ccccc1)CN1CCN(c2nsnc2Cl)CC1 | – | 0 | 49.3 | – | –
O=C(N[C@@H](Cc1ccccc1)CN1CCN(c2nsnc2Cl)CC1)C1CCCCC1 | 0.8 | 17 | – | 93 | EC50 (CHO [6]): 4.6 nM
COc1nsnc1N1CCN(C[C@@H](Cc2cccnc2)NC(=O)C2(C)CCCCC2)CC1 | 3 | – | 113 | 0 | IC50 (D(4) dopamine receptor): 1100 nM; IC50 (D(2) dopamine receptor): 3520 nM; IC50 (D(3) dopamine receptor): 489 nM
COc1nsnc1N1CCN(C[C@@H](Cc2ccccc2)N(C)C(=O)C2CCCCC2)CC1 | 1.5 | 0 | 72.7 | – | inhibition [7]: 11%
O=C(N[C@@H](Cc1ccccc1)CN1CCN(c2nsnc2Cl)CC1)c1ccccn1 | – | – | – | – | inhibition [5]: 47%
